# Target: [3H]PROG 16α-hydroxylating activity by male rat liver microsomes (CYP2C11) (Rattus norvegicus, UniProt P08683)
# Experiment: Inhibition of [3H]progesterone 16α-hydroxylation by adult male rat liver microsomes
# Settings: not given
# Description: Approximately 95-day-old male Wistar rats, castrated on the 70th day after birth, were used. The liver microsomes were prepared as previously described. The experiments were performed according to instrumental guidelines for the care and use of laboratory animals.
# The metabolism by rat liver microsomes were examined, according to our previously described procedure. Briefly, the microsomal suspension (400–600 μg of protein/2.2 mL, total volume of the reaction mixture) was preincubated with [3H]PROG (20 nM) under the absence or presence of an unlabeled steroid (0.01–10 μM) at 36°C for 30 min. […] After the incubation, two identical samples were mixed and extracted with toluene. The toluene-extractable [3H]PROG metabolites (more than 90%) were isolated by various paper chromatographic systems and then identified by recrysallization method. Other miscellaneous procedures are described in our previous papers.
# [3H]PROG 16α-hydroxylating activity by male rat liver microsomes (CYP2C11), sequence (P08683 whole entry): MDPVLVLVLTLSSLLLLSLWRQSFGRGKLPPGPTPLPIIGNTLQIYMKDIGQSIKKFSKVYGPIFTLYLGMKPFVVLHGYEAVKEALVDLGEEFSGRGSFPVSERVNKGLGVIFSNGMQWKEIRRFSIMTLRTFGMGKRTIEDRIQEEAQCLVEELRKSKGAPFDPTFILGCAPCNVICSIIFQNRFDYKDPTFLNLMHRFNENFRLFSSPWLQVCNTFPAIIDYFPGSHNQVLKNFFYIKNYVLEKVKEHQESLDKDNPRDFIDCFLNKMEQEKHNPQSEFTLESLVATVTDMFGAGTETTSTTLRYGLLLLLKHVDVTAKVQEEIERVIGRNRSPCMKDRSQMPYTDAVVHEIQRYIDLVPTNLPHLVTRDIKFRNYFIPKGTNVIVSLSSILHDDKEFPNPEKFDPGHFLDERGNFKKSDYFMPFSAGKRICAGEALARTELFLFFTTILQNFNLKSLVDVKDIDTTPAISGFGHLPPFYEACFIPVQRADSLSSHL
row,Compound,[3H]PROG16α-hydroxylation (IC40) [nM]
1,"CC(=O)[C@H]1[C@H](O)C[C@H]2[C@@H]3CC[C@H]4C[C@@H](O)CC[C@]4(C)[C@H]3CC[C@@]21C [compound 36, 3β,16α-Dihydroxy-5α-pregnan-20-one]",1150

# Same assay, conditions: 40% inhibition not reached at 10 μM of unlabeled steroid; male rat liver microsomes
row,Compound,"[3H]PROG16α-hydroxylation (IC40), given as bound in μM"
1,"CC(=O)[C@H]1CC[C@H]2[C@@H]3CCC4=CC(=O)CC[C@]4(C)[C@H]3[C@H](O)C[C@]12C [compound 5, 11α-Hydroxyprogesterone]",>10 µM
2,"CC(=O)[C@H]1CC[C@H]2[C@@H]3C[C@@H](O)C4=CC(=O)CC[C@]4(C)[C@H]3CC[C@]12C [compound 3, 6β-Hydroxyprogesterone]",>10 μM^c
3,"CC(=O)[C@H]1CC[C@H]2[C@@H]3CCC4=CC(=O)CC[C@@H]4[C@H]3CC[C@]12C [compound 12, 19-Norprogesterone]",>10 µM
4,"CC(=O)[C@H]1[C@H](C)C[C@H]2[C@@H]3CCC4=CC(=O)CC[C@]4(C)[C@H]3CC[C@@]21C [compound 9, 16α-Methylprogesterone]",>10 μM ^d
5,"CC(=O)[C@H]1CC[C@H]2[C@@H]3CCC4=CC(=O)CC[C@]4(CO)[C@H]3CC[C@]12C [compound 11, 19-Hydroxyprogesterone]",>10 µM
6,"C[C@]12CC[C@H]3[C@@H](CC=C4C[C@@H](O)CC[C@@]43C)[C@@H]1CC[C@@H]2C(=O)COS(=O)(=O)O [compound 24, 21-Sulfatepregnenolone]",>10 µM
7,"CC(=O)[C@H]1CC[C@H]2[C@@H]3CCC4=CC(=O)CC[C@]4(C)[C@H]3[C@@H](O)C[C@]12C [compound 7, 11β-Hydroxyprogesterone]",>10 µM
8,"CC(C)CCC[C@@H](C)[C@H]1CC[C@H]2[C@@H]3CC=C4C[C@@H](O)CC[C@]4(C)[C@H]3CC[C@]12C [compound 26, Cholesterol]",>10 µM
9,"C[C@]12CC[C@H]3[C@@H](CCC4=CC(=O)CC[C@@]43C)[C@@H]1CC[C@@H]2C(=O)O [compound 39, 4-Androsten-3-one; 17-β-carboxylaic acid]",>10 μM^e
10,"CC(=O)O[C@@H]1C[C@]2(C)[C@@H](C(C)=O)CC[C@H]2[C@@H]2CCC3=CC(=O)CC[C@]3(C)[C@H]21 [compound 6, 11α-Acetoxyprogesterone]",>10 µM
11,"C[C@H](O)[C@H]1CC[C@H]2[C@@H]3CCC4=CC(=O)CC[C@]4(C)[C@H]3CC[C@]12C [compound 13, 20α-Hydroxyprogesterone]",>10 µM
12,"CC(=O)O[C@H]1CC[C@H]2[C@@H]3CCC4=CC(=O)CC[C@]4(C)[C@H]3CC[C@]12C [compound 42, 17β-Acetoxytestosterone]",>10 µM
13,"C[C@]12CC[C@@H](O)C[C@@H]1CC[C@@H]1[C@@H]2CC[C@]2(C)[C@@H](OS(=O)(=O)O)CC[C@@H]12 [compound 64, 5α-Androstan-3α,17β-diol-17-sulfate]",>10 µM
14,"CC(=O)[C@H]1CC[C@H]2[C@@H]3CC[C@H]4C[C@H](OS(=O)(=O)O)CC[C@]4(C)[C@H]3CC[C@]12C [compound 31, 3α-Sulfate-5 α -pregnan-20-one]",>10 µM
15,"CC(=O)[C@H]1CC[C@H]2[C@@H]3CCC4=CC(=O)CC[C@]4(C)[C@H]3CC[C@]12CO [compound 10, 18-Hydroxyprogesterone]",>10 µM
16,"C[C@H](O)[C@H]1CC[C@H]2[C@@H]3CC=C4C[C@@H](O)CC[C@]4(C)[C@H]3CC[C@]12C [compound 21, 20α-Hydroxypregnenolone]",>10 µM
17,"C[C@]12CC[C@H](OS(=O)(=O)O)CC1=CC[C@@H]1[C@@H]2CC[C@]2(C)C(=O)CC[C@@H]12 [compound 44, Dehydroepiandrosterone-3-sulfate]",>10 µM
18,"CC[C@H]1CC[C@H]2[C@@H]3CC=C4C[C@@H](O)CC[C@]4(C)[C@H]3CC[C@]12C [compound 25, 5-Pregnen-3β-ol]",>10 µM

# Same assay, conditions: IC40 of progesterone 1 relative to IC40 of 33
row,Compound,observed inhibitory potency index against [3H]PROG 16α-hydroxylation
1,"CC(=O)[C@H]1CC[C@H]2[C@@H]3CC[C@@H]4C[C@H](O)CC[C@]4(C)[C@H]3CC[C@]12C [compound 33, 3α-Hydroxy-5 β -pregnan-20-one]",31.46

# Same assay, conditions: molar concentration of unlabeled steroid causing 40% inhibition; [3H]PROG 20 nM; unlabeled steroid 0.01–10 μM; male rat liver microsomes
row,Compound,[3H]PROG16α-hydroxylation (IC40) [nM]
1,"CC(=O)[C@H]1CC[C@H]2[C@@H]3CC[C@H]4C[C@H](O)CC[C@]4(C)[C@H]3[C@@H](O)C[C@]12C [compound 35, 3α,11β-Dihydroxy-5α-pregnan-20-one]",150
2,"C[C@]12CC[C@H]3[C@@H](CC=C4C[C@@H](O)CC[C@@]43C)[C@@H]1CC[C@@H]2C(=O)CO [compound 22, 21-Hydroxypregnenolone]",462
3,"C[C@]12CC[C@@H](O)C[C@H]1CC[C@@H]1[C@@H]2CC[C@]2(C)[C@@H](O)CC[C@@H]12 [compound 66, 5β-Androstan-3 α,17 β -diol]",69
4,"C[C@@]12CCC[C@H]1[C@@H]1CC[C@H]3C[C@H](O)CC[C@]3(C)[C@H]1CC2 [compound 48, 5α-Androstan-3α-ol]",1030
5,"CC(=O)[C@H]1CC[C@H]2[C@@H]3CC[C@@H]4C[C@H](O)CC[C@]4(C)[C@H]3CC[C@]12C [compound 33, 3α-Hydroxy-5 β -pregnan-20-one]",24
6,"CC(=O)[C@H]1CC[C@H]2[C@@H]3CCC4=C[C@@H](O)CC[C@]4(C)[C@H]3CC[C@]12C [compound 2, 3β-Hydroxyprogesterone]",255
7,"C[C@]12CC[C@H](O)C[C@H]1CC[C@@H]1[C@@H]2CC[C@]2(C)[C@@H](O)CC[C@@H]12 [compound 69, 5β-Androstan-3β,17β-diol]",320
8,"CC(=O)[C@H]1CC[C@H]2[C@@H]3CCC4=CC(=O)CC[C@]4(C)[C@H]3CC[C@]12C [compound 1, Progesterone]",755
9,"CC(=O)OCC(=O)[C@H]1CC[C@H]2[C@@H]3CC=C4C[C@@H](O)CC[C@]4(C)[C@H]3CC[C@]12C [compound 23, 21-Acetoxypregnenolone]",600
10,"C[C@]12CCCC[C@H]1CC[C@@H]1[C@@H]2CC[C@]2(C)[C@@H](O)CC[C@@H]12 [compound 53, 5β-Androstan-17β-ol]",365
11,"CC(=O)[C@H]1CC[C@H]2[C@@H]3CC[C@H]4CC(=O)CC[C@]4(C)[C@H]3CC[C@]12C [compound 27, 5α-Pregnan-3,20-dione]",720
12,"COC(=O)[C@@H]1C[C@@H](O)C[C@H]2CC[C@H]3[C@@H]4CCC[C@@]4(C)CC[C@@H]3[C@]21C [compound 68, 5β-Androstan-3α-ol-1β-carboxylic acid methyl ester]",43
13,"C[C@]12CC[C@H](O)CC1=CC[C@@H]1[C@@H]2CC[C@]2(C)C(=O)CC[C@@H]12 [compound 43, Dehydroepiandrosterone]",680
14,"COC(=O)[C@H]1CC[C@H]2[C@@H]3CCC4=CC(=O)CC[C@]4(C)[C@H]3CC[C@]12C [compound 40, 4-Androsten-3-one;17-β-carboxylaic acid methyl ester]",801
15,"C[C@]12CC[C@H]3[C@@H](CCC4=CC(=O)CC[C@@]43C)[C@@H]1CC[C@@H]2O [compound 41, Testosterone]",1450
16,"CC(=O)O[C@@H]1CC[C@@]2(C)[C@@H](CC[C@@H]3[C@@H]2CC[C@]2(C)[C@@H](C(C)=O)CC[C@@H]32)C1 [compound 30, 3α-Acetoxy-5 α -pregnan-20-one]",410
17,"CC(=O)[C@H]1CC[C@H]2[C@@H]3CC[C@H]4C[C@@H](O)CC[C@]4(C)[C@H]3CC[C@]12C [compound 32, 3β-Hydroxy-5 α -pregnan-20-one]",225
18,"CC(=O)O[C@H]1CC[C@@]2(C)C(=CC[C@H]3[C@@H]4CC[C@H](C(C)=O)[C@@]4(C)CC[C@@H]32)C1 [compound 18, Pregnenolone-3-acetate]",800
19,"C[C@]12CC[C@H]3[C@@H](CC=C4C[C@@H](O)CC[C@@]43C)[C@@H]1CC[C@@H]2O [compound 45, 5-Androstenediol]",640
20,"CC(=O)[C@H]1CC[C@H]2[C@@H]3CC[C@H]4C[C@H](O)CC[C@]4(C)[C@H]3CC[C@]12C [compound 29, 3α-Hydroxy-5 α -pregnan-20-one]",62
21,"CC(=O)O[C@@H]1C[C@H]2[C@@H]3CC[C@H](C(C)=O)[C@@]3(C)CC[C@@H]2[C@@]2(C)CCC(=O)C=C12 [compound 4, 6β-Acetoxyprogesterone]",740
22,"CC(=O)O[C@H]1CC[C@H]2[C@@H]3CC[C@H]4C[C@H](O)CC[C@]4(C)[C@H]3CC[C@]12C [compound 63, 5α-Androstan-3α,17β-diol-17-acetate]",300
23,"C[C@]12CC[C@@H](O)C[C@@H]1CC[C@@H]1[C@@H]2CC[C@]2(C)[C@@H](O)CC[C@@H]12 [compound 62, 5α-Androstan-3α,17β-diol]",125
24,"C[C@@]12CCC[C@H]1[C@@H]1CC[C@@H]3C[C@@H](O)CC[C@]3(C)[C@H]1CC2 [compound 51, 5β-Androstan-3β-ol]",160

# From paper PMC4970648, “Studies on 16α-Hydroxylation of Steroid Molecules and Regioselective Binding Mode in Homology-Modeled Cytochrome P450-2C11” (International Journal of Medicinal Chemistry, 2010)
